Structures can show the parent of a compound that is named as a salt.
System: not given
Assay: not given
Settings: not given
In the case of `COc1cc2nc(N3CCc4c(CN5CCOCC5)cccc4C3)[nH]c(=O)c2cc1OC` (as salt: hydrochloric acid salt) [Compound 701, 6,7-Dimethoxy-2-(5-morpholin-4-ylmethyl-3,4-dihydro-1H-isoquinolin-2-yl)-3H-quinazolin-4-one], the melting point is reported as 227.9 to 229.6 °C.
In the case of `COc1cc2nc(N3CCc4c(cccc4C(=N)N4CCOCC4)C3)[nH]c(=O)c2cc1OC` (as salt: hydrochloric acid salt) [Compound 901, 2-[5-(imino-morpholin-4-yl-methyl)-3,4-dihydro-1H-isoquinolin-2-yl]-6,7-dimethoxy-3H-quinazolin-4-one], the melting point is reported as 249 to 251 °C.
With `COc1cc2nc(N3CCc4c(cccc4-c4cnccc4N)C3)[nH]c(=O)c2cc1OC` (as salt: hydrochloric acid salt) [Compound 902, 2-[5-(4-amino-pyridin-3-yl)-3,4-dihydro-1H-isoquinolin-2-yl]-6,7-dimethoxy-3H-quinazol-4-one] the melting point was > 300 °C.
For `COc1cc2c(cc1OC)CN(c1nc(=O)c3cc(OC)c(OC)cc3[nH]1)CC2` [Compound 105, 2-(6,7-dimethoxy-3,4-dihydro-1H-isoquinolin-2-yl)-6,7-dimethoxy-1H-quinazolin-4-one], the melting point was 188.6 to 190.4 °C.
`COc1cc2nc(N3CCc4c(ncnc4N4CCOCC4)C3)[nH]c(=O)c2cc1OC` [Compound 201, 6,7-dimethoxy-2-(4-morpholin-4-yl-5,8-dihydro-6H-pyrido[3,4-d]pyrimidin-7-yl)-3H-quinazolin-4-one] showed a melting point of 287.7 to 290.4 °C.
`COc1cc2nc(N3CCn4c(cnc4NC4CCCCC4)C3)[nH]c(=O)c2cc1OC` [Compound 301, 2-(3-cyclohexylamino-5,6-dihydro-8H-imidazo[1,5-a]pyrazin-7-yl)-6,7-dimethoxy-1H-quinazolin-4-one] gave a melting point of 248 to 249.4 °C.
Molecule `COc1cc2nc(N3CCc4c(cccc4S(=O)(=O)N4CCN(C)CC4)C3)[nH]c(=O)c2cc1OC` [Compound 401, 6,7-dimethoxy-2-[5-(4-methyl-piperazine-1-sulfonyl)-3,4-dihydro-1H-isoquinolin-2-yl]-3H-quinazolin-4-one] has a melting point of 230 to 237 °C.
For `COc1cc2[nH]c(N3CCn4c(-c5ccccc5)cnc4C3)nc(=O)c2cc1OC` [Compound 904, 6,7-dimethoxy-2-(3-phenyl-5,6-dihydro-8H-imidazo[1,2-α]pyrazin-7-yl)-1H-quinazolin-4-one], the melting point was > 300 °C.

System: anesthetized dog
Assay: Dog in vivo blood and intraurethral pressure assay
Settings: anesthetized mongrel dogs, i.v. bolus, increasing doses
Description: The following describes an in vivo assay for measuring the relative effect of test compounds on hypogastric nerve stimulation-induced increases in intraurethral pressure and phenylephrine-induced increases in diastolic blood pressure in anesthetized dog.
Mongrel dogs (10 to 20 kg) were fasted for 12 to 18 hours and anesthetized with […] (35 mg/kg, i.v.). An endotracheal tube was inserted and thereafter the lungs were mechanically ventilated with room air. The right femoral vein was isolated and cannulated with two polyethylene cannulae, one for the administration of a continuous infusion of phenobarbital sodium (5 to 10 mg/kg/hr) and the other for bolus administration of test substances. The right femoral artery was isolated and cannulated to the abdominal aorta with a fluid filled polyethylene cannula connected to an external pressure transducer for monitoring diastolic aortic pressure (DAP). The bladder was exposed via a ventral midline abdominal incision and emptied of urine through a 22 gauge needle. The bladder was cannulated through a stab incision with a water filled balloon catheter connected to an external pressure transducer for monitoring prostatic intraurethral pressure (IUP). The right hypogastric nerve (HGN) was carefully isolated and attached to a Dastre's electrode for nerve stimulation. […]
With `COc1cc2nc(N3CCN(C(=O)c4ccco4)CC3)nc(N)c2cc1OC` [prazosin] the “inhibition of hypogastric nerve (HGN) stimulation-induced increases in intraurethral pressure (IUP) relative to phenylephrine-induced increases in diastolic aortic pressure (DAP)” value was “inhibited increases in IUP and DAP in similar fashion”.

— patent US6900220B2, “Quinazolone derivatives as alpha 1A/B adrenergic receptor antagonists” (Syntex (U.S.A.) LLC, priority 2001, dated 2005)
